In patent US20250186474A1 (CHINA CHEMICAL & PHARMACEUTICAL CO., LTD., priority 2023, published 2025):

What was measured:
[1] = Solubility / precipitation in the pharmaceutical solution composition; assay type: physicochemical; conditions: drug prepared with 20 mg/ml
[2] = Stress test of compositions with different EIDD-1931 concentrations (60° C., 7 and 14 days); assay type: physicochemical; conditions: API
Experimental: Therefore, the concentration of EIDD-1931 was adjusted, and another stress test was conducted to evaluate how the resulting drugs degrade in 7 and 14 days.

precipitation [1]: had precipitation issues
Single-impurity percentage [2]: 0.01/0.01%
total-impurity percentage [2]: 0.01/0.01%
Theoretical value ([2]; impurity test): 93.25%
SMILES: O=c1nc(NO)ccn1[C@@H]1O[C@H](CO)[C@@H](O)[C@H]1O [EIDD-1931, β-D-N4-hydroxycytidine]
